Columns and labels:
[1] = molecular target: T1, PDGFRα (Homo sapiens, UniProt P16234); test: Caliper biochemical assay, PDGFRα; conditions: Table 6
T1 construct: purchased Millipore 14-467 (lot 26321_ACTI)
How it was run: (§1)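 Mobility-shift readout: after EDTA quench, fluorescent peptide and product are resolved electrophoretically on a LabChip and measured by fluorescence. Reactions contain enzyme, carboxyfluorescein peptide, ATP, Mn^2+ and compound, run 3 h at 25° C; 100% inhibition control lacks enzyme.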

[2] = molecular target: T2, wtKIT (Homo sapiens, UniProt P10721); test: Caliper biochemical assay, wtKIT; conditions: Table 6, read-out: KIT Biochemical IC50 avg
T2 construct: 1888289AM in the reaction mixtures
How it was run: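 Mobility-shift read-out: after EDTA stop, fluorescent peptide substrate and product resolved electrophoretically on LabChip 3000. Reaction ran 3 h at 25° C with 400 μM ATP, Mn^2+ cofactor, 5.0 nM wtKIT, 1 μM FAM-peptide, pH 7.5 HEPES buffer; no-enzyme wells defined full inhibition.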

[3] = molecular target: T3, CSF-1R (Homo sapiens, UniProt P07333); test: Caliper biochemical assay, CSF-1R; conditions: Table 6
T3 construct: purchased Invitrogen PV3249 (lot 662393N)
How it was run: as §1

[4] = molecular target: T4, BCRP (BCRP-MDCKII monolayer) (Homo sapiens, UniProt Q9UNQ0); test: MDCKII-BCRP bidirectional transport assay; type: in vitro ADME; conditions: for MDCK-BCRP: Papp A-B: apical to basolateral
T4 construct: host or cells: MDCKII (canine kidney) cells
T4 sequence (Q9UNQ0 1-655): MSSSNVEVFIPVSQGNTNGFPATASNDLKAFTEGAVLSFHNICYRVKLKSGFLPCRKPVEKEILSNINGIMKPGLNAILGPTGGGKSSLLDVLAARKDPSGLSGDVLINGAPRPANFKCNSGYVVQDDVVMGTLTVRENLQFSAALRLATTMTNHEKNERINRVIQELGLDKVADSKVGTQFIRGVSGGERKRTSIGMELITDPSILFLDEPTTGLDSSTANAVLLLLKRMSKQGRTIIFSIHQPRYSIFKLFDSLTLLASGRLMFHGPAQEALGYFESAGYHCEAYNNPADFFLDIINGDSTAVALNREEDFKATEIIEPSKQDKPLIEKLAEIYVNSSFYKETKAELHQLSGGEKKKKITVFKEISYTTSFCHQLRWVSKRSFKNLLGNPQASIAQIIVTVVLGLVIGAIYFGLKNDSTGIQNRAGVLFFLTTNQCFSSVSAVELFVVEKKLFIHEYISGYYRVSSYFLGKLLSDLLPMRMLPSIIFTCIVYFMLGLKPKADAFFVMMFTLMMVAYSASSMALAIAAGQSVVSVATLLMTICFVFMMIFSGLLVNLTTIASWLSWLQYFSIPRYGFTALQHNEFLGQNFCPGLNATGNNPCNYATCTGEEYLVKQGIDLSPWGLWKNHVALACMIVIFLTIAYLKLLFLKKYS
How it was run: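 Efflux ratios were derived from Papp values, alongside recovery, with compounds quantified by LC-MS/MS. Both directions were tested in duplicate across BCRP-MDCKII monolayers used on days 12–15. Incubation ran 120 min at 37° C, 5% CO2, after a 15 min preincubation in assay buffer.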

[5] = molecular target: T2, wtKIT; test: HTRF biochemical assay, wtKIT (phosphorylation of a peptide substrate); conditions: Table 4
How it was run: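 HTRF read-out of FAM-peptide (1 µM) phosphorylation after anti-phosphotyrosine antibody addition and EDTA quench. Reaction: 5.0 nM wtKIT, 400 µM ATP, 10 mM Mn2+, HEPES pH 7.5, 1% DMSO, 3 h, 25 °C; optional enzyme-compound preincubation; enzyme level set for 10-20% conversion.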

[6] = Kinetic solubility assay; type: physicochemical; conditions: kinetic solubility, 50 mM PB (pH 7.4), shaken 24 hours at RT
How it was run: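 Concentration in the filtrate was determined by UPLC-UV or HPLC-UV with a standard curve. Before that, compound (10 mM DMSO stock) in 50 mM PB at pH 7.4 was agitated 24 h at room temperature, then PTFE-filtered with centrifugation.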

[7] = tested on: KIT phosphorylation in M-07e cells; test: Cell-based KIT phosphorylation in M-07e cells by pKIT ELISA; design: species or system human; conditions: SCF stimulation
Protocol: Exemplary compounds were tested for ability to inhibit KIT phosphorylation using M-07e cells as monitored by pKIT ELISA. M-07e cells are also represented as M-07E, M-07e, M07-e, M07e, Mo7e, MO7e, M07E and MO7E. Assay procedures and results are described below.
Part I—Procedures for Determining KIT Inhibition inM-07e Cells Using pKTT ELISA Reagents and consumables: • M-07e cells: Initially obtained from Accegen, cat #ABC-TC1313 • p-cKIT Capture ELISA antibody: anti-Human Phospho-CD117/c-kit, R&D cat #DYC3527-5 • Anti-pY-HIRP antibody: R&D cat #DYC3527-5 • 25× wash buffer: Quantikine ELISA Wash Buffer 1, R&D cat #WA126 • PBS: R&D cat #DY006 • 96 well ELISA plates: Clear Polystyrene Microplates, R&D Cat #DY990 • 96 well Tissue culture plates: Corning® 96 Well TC-Treated Microplates, cat #CLS3894 • RPMI medium: ATCC® RPMI-1640 Medium, Cat #30-2001 • FBS: Fetal Bovine Serum, certified, United States Gibco, Thermo-Fisher 16000044 • GM-CSF: Recombinant Human GM-CSF Protein, R&D cat #215-GM • SCF: Recombinant Human SCF Protein, R&D cat #255-SC
• 1. Prepare cells: • a. Culture M-07e cells in RPMI medium+20% serum+GM-CSF+penstrep • To make 50 mL of growth medium • i. 40 mL RPMI media • ii. 10 mL FBS • iii. 10 uL of GM-CSF (100 ug/mL stock) • iv. 0.5 mL pen strep (100×) • b. Harvest cells • c. Re-suspend cells in 100% RPMI media (without serum) to final concentration of 1 million cells/mL • d. Transfer 100 uL of cell solution to 11 columns of a 96 well flat bottom cell culture plate • e. Incubate cells over night at 37 C • 2. Prepare ELISA Plates: • a. Dilute capture antibody to concentration 4 ug/mL in PBS • b. Coat 96 well microplates with 100 uL of capture antibody • c. Seal plates and incubate at RT overnight • d. Wash plates with 300 uL of wash buffer • e. Repeat wash • f. Treat plates with 300 uL of blocking buffer at RT for 1 hour • 3. Addition of compounds: • a. Prepare compound dilutions in RPMI media • i. Top test concentration is 1 uM • ii. Serially dilute compounds 3× for a total of 8 concentrations • b. Add 10 uL of 10× compound dilutions to cells • i. No compounds added in column 11 (for controls) • c. Incubate cells with compounds for 2 hours at 37 C • d. Stimulate cells with SCF for 5 min at concentration of 100 ng/mL (final) • i. In column 11 stimulate top 4 wells. Leave bottom 4 wells unstimulated • e. Remove cell culture media with multichannel pipet • f. Add 110 uL of Lysis buffer to all wells • g. Incubate plates at RT for 30 min while shaking • 4. Transfer 100 uL of cell lysis to each prepared Elisa plate • 5. Add 100 uL of the standard pc-KIT dilutions to the standard wells in column 12 • a. Top concentration=2000 pg/mL • b. 2× dilutions • 6. Incubate ELISA plate with cell lysate for 2 hours at RT • 7. Wash Plate with wash buffer (wash 1) • 8. Repeat wash (wash 2) • 9. […] Add 100 uL of diluted anti-pY-HRP (1/1000 dilution in detection antibody dilution buffer) and incubate 2 hours at RT • 11. Wash plate with wash buffer (wash 1) • 12. Repeat wash (wash 2) • 13. Repeat wash (wash 3) • 14. Add 100 uL of substrate solution to each well • 15. Incubate plates 20 min • Note: Plate development is indicated by aqua color • 16. Add 50 uL of stop solution to each well • 17. Determine optical density on Bitek Synergy Neo2: • a. Make new experiment
Select absorbance 1 set to 450 nm

T2 sequence (P10721 26-976): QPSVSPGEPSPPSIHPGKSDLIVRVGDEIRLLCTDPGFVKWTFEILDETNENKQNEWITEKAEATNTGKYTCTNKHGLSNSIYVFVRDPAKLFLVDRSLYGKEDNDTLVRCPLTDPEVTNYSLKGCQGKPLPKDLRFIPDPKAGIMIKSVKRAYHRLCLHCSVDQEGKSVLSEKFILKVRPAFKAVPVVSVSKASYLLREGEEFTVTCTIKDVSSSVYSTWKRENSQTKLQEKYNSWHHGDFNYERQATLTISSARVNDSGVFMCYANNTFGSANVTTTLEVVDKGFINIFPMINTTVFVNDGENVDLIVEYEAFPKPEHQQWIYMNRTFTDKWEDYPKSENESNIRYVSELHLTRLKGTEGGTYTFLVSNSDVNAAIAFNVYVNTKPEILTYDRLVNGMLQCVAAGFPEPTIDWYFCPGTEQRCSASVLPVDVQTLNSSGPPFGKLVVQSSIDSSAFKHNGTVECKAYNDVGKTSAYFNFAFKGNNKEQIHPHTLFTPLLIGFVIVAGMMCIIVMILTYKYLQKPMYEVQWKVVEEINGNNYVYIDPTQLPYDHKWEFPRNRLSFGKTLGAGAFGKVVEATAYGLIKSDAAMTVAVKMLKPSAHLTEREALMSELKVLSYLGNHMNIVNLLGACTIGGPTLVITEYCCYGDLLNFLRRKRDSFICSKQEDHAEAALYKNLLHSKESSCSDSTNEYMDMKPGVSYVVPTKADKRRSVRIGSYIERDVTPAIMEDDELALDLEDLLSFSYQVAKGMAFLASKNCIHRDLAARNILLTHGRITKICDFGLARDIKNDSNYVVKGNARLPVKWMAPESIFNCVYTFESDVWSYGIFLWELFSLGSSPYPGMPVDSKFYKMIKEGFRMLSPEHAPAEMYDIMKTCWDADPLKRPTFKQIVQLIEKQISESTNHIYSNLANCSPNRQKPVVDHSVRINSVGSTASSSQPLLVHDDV
T3 sequence (P07333 20-972): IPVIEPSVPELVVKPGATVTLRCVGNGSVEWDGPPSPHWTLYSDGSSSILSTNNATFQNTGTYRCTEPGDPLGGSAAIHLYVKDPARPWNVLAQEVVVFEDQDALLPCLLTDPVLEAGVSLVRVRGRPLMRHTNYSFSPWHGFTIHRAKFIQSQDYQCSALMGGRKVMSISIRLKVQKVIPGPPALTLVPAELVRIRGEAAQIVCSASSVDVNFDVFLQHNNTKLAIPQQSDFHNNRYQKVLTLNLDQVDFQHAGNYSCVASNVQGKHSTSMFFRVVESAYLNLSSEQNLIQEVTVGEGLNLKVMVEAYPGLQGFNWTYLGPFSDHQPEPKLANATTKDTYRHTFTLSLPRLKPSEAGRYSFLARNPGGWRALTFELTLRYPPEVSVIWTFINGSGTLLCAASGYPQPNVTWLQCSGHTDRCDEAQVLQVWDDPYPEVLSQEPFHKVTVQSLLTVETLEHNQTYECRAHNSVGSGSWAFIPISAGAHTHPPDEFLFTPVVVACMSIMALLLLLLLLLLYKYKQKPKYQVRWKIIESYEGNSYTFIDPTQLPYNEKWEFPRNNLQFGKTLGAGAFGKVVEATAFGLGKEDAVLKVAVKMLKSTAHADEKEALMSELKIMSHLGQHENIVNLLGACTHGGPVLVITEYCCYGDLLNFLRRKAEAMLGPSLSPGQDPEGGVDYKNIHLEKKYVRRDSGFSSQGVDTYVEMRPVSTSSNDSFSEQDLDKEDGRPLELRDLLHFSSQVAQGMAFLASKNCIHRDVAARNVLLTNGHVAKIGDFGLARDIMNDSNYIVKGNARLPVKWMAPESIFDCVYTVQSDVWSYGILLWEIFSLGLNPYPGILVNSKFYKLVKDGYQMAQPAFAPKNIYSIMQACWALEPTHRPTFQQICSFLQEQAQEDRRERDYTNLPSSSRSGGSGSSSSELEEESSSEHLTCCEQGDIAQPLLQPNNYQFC
T1 sequence (P16234 24-1089): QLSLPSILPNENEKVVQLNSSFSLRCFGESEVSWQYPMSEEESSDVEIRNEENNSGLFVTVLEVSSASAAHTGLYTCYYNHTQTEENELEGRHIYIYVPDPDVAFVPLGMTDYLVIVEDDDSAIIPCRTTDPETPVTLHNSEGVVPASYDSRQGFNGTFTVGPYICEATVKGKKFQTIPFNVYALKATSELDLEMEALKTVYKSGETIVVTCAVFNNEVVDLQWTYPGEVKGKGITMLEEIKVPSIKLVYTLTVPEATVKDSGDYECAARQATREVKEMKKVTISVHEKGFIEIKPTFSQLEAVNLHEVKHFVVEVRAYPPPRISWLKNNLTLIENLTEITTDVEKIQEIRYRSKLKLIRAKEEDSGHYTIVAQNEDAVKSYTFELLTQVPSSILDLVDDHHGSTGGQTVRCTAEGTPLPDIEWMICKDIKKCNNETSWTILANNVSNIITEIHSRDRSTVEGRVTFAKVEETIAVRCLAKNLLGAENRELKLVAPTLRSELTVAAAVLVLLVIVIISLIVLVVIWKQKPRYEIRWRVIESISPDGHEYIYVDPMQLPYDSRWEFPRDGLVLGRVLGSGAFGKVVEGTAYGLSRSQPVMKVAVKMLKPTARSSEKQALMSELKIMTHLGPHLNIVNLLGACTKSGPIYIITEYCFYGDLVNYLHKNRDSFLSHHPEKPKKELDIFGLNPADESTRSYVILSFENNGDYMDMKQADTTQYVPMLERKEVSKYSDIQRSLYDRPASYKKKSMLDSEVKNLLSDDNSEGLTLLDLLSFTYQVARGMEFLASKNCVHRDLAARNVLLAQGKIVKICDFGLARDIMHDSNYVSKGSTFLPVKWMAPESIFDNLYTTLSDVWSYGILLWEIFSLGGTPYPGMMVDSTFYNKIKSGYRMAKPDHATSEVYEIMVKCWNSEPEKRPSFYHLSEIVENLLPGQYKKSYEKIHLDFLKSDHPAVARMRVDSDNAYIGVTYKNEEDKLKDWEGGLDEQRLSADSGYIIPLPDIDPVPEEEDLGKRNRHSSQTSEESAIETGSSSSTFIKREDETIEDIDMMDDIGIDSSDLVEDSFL

Structure (SMILES)	IC50 [1] [nM]	IC50 [2] [nM]	IC50 [3] [nM]	MDCK-BCRP: Efflux Ratio [4]	MDCK-BCRP: Papp A-B [4]	IC50 [5] [nM]	Solubility (μM) [6]	IC50 [7] [nM]
Cc1nc(-c2ccc(C)c(NC(=O)c3cnc4ccc(N)cn34)c2)no1 [Compound I-219]	500 to 5000	≤ 50	50 to 500	37	0.79 10^−6 cm/s	≤ 50	*** (a solubility greater than 2 μM and less than or equal to 10 μM)	–
COC(=O)N1CC(c2nc(-c3ccc(C)c(NC(=O)c4cnc5cc(OCCO)ccn45)c3)no2)C1 [Compound I-264]	50 to 500	≤ 50	≤ 50	24.2	0.71 10^−6 cm/s	≤ 50	** (a solubility greater than 10 μM and less than or equal to 50 μM)	–
Cc1ccc(-c2noc(-c3ccccn3)n2)cc1NC(=O)c1cnc2ccccn12 [Compound I-272]	500 to 5000	≤ 50	50 to 500	3.4	6.58 10^−6 cm/s	–	**** (a solubility less than or equal to 2 μM)	–
COC(=O)Cc1nc(-c2ccc(C)c(NC(=O)c3cnc4ccccn34)c2)no1 [Compound I-321]	500 to 5000	≤ 50	50 to 500	3.4	4.73 10^−6 cm/s	–	**** (a solubility less than or equal to 2 μM)	–
COC(=O)N1CC(c2nc(-c3ccc(C)c(NC(=O)c4cnn5ccc(C#N)cc45)c3)no2)C1 [Compound I-265]	5000 to 30000	50 to 500	5000 to 30000	19.4	1 10^−6 cm/s	50 to 500	** (a solubility greater than 10 μM and less than or equal to 50 μM)	–
Cc1ccc(-c2noc([C@H]3C[C@@H]3F)n2)cc1NC(=O)c1cnc2ccc(N3CCCC3)cn12 [Compound I-361]	50 to 500	≤ 50	≤ 50	0.54	1.1 10^−6 cm/s	–	**** (a solubility less than or equal to 2 μM)	–
Cc1ccc(-c2noc(C[C@H](C)O)n2)cc1NC(=O)c1cnc2cc(C(F)F)ccn12 [Compound I-82]	–	–	–	–	–	–	**** (a solubility less than or equal to 2 μM)	50 to 500
Cc1ccc(-c2noc(CC(=O)OCc3ccccc3)n2)cc1NC(=O)c1cnc2ccccn12 [Compound I-322]	5000 to 30000	≤ 50	50 to 500	2.7	1.38 10^−6 cm/s	–	**** (a solubility less than or equal to 2 μM)	–
COC(=O)N1CC(c2nc(-c3ccc(C)c(NC(=O)c4cnc5cc(OC(C)(C)CO)ccn45)c3)no2)C1 [Compound I-228]	50 to 500	≤ 50	≤ 50	22.9	1.08 10^−6 cm/s	50 to 500	** (a solubility greater than 10 μM and less than or equal to 50 μM)	–
Cc1ccc(-c2noc(C3CC(Oc4ccccc4)C3)n2)cc1NC(=O)c1cnc2ccccn12 (stereo not drawn) [Compound I-348]	500 to 5000	≤ 50	50 to 500	2.37	0.13 10^−6 cm/s	–	*** (a solubility greater than 2 μM and less than or equal to 10 μM)	–
Cc1ccc(-c2noc(C3(CO)CC(F)(F)C3)n2)cc1NC(=O)c1cnc2ccccn12 [Compound I-320]	50 to 500	≤ 50	≤ 50	16	1.75 10^−6 cm/s	–	*** (a solubility greater than 2 μM and less than or equal to 10 μM)	–
Cc1ccc(-c2noc([C@H]3C[C@@H]3F)n2)cc1NC(=O)c1cnc2cc(N3CCCC3)ccn12 [Compound I-365]	≤ 50	≤ 50	≤ 50	1.21	4.73 10^−6 cm/s	–	*** (a solubility greater than 2 μM and less than or equal to 10 μM)	–
Cc1ccc(-c2noc(C34CC(F)(C3)C4)n2)cc1NC(=O)c1cnc2ccccn12 [Compound I-392]	500 to 5000	≤ 50	≤ 50	2.82	7.51 10^−6 cm/s	–	*** (a solubility greater than 2 μM and less than or equal to 10 μM)	–
Cc1ccc(-c2noc(C3CCC(F)C3)n2)cc1NC(=O)c1cnc2ccccn12 (racemic) [Compound I-318]	50 to 500	≤ 50	≤ 50	0.93	13.9 10^−6 cm/s	–	*** (a solubility greater than 2 μM and less than or equal to 10 μM)	–
